In PubChem BioAssay (NCI):
Values joined by “and” are separate entries in the source; they are usually repeats but may differ in a detail not shown here. Identical values can stand only once.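 A five-concentration, 48-hour dose response in 96-well plates underlies each endpoint, interpolated linearly between surrounding concentrations. At the GI50, growth is halved. TGI denotes the concentration required for complete inhibition of growth.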

Legend:
Assay in all cases: NCI anticancer screen, dose series, 48 h
UO-31 renal = system: UO-31 renal
BT-549 breast = system: BT-549 breast
SF-295 CNS = system: SF-295 CNS
COLO 205 colon = system: COLO 205 colon
IGROV1 ovarian = system: IGROV1 ovarian
OVCAR-5 ovarian = system: OVCAR-5 ovarian
HOP-62 NSCLC = system: HOP-62 NSCLC
HCT-116 colon = system: HCT-116 colon
OVCAR-3 ovarian = system: OVCAR-3 ovarian
OVCAR-8 ovarian = system: OVCAR-8 ovarian

| SMILES | GI50 (UO-31 renal) [µM] | TGI (UO-31 renal) | GI50 (BT-549 breast) [µM] | TGI (BT-549 breast) | GI50 (SF-295 CNS) [µM] | TGI (SF-295 CNS) | GI50 (COLO 205 colon) [µM] | TGI (COLO 205 colon) [µM] | GI50 (IGROV1 ovarian) [µM] | TGI (IGROV1 ovarian) | GI50 (OVCAR-5 ovarian) | TGI (OVCAR-5 ovarian) | GI50 (HOP-62 NSCLC) [µM] | TGI (HOP-62 NSCLC) | GI50 (HCT-116 colon) [µM] | TGI (HCT-116 colon) | GI50 (OVCAR-3 ovarian) [nM] | TGI (OVCAR-3 ovarian) [µM] | GI50 (OVCAR-8 ovarian) | TGI (OVCAR-8 ovarian) |
| --- | --- | --- | --- | --- | --- | --- | --- | --- | --- | --- | --- | --- | --- | --- | --- | --- | --- | --- | --- | --- |
| C#CCOc1cccc(Nc2ncnc3c(NC(=O)C=C)cccc23)c1 | 13.4 | 87.5 µM | 13.9 | 89.9 µM | 27.4 | > 100 µM | 24.6 | 73.4 | 17.8 | 44.9 µM | 27.6 µM | > 100 µM | 27.8 | > 100 µM | 17 | 85.9 µM | 16500 | 91.5 | 21 µM | 70.1 µM |
| Nc1cc(Br)c(-c2nnc(CCC(=O)c3nc4ccccc4[nH]3)o2)c(Br)c1 | 4.06 | > 100 µM | 6.82 | > 100 µM | 9.78 | 35.6 µM | 11.8 | 30.8 | 5.87 | 62.7 µM | 29.4 µM | > 100 µM | 23.7 | > 100 µM | 8.26 | > 100 µM | 2600 | 6.98 | 21.6 µM | > 100 µM |
| CN(C)C(=S)SSC(=S)N(C)C | 15 | 28.7 µM and > 46.4 µM and 94 µM | – | 30.6 µM and 31.3 µM and 28.4 µM | – | 81.9 µM and > 100 µM and 57.1 µM | – | 29.3 | > 89.9 | > 100 µM and 29.3 µM | 14.9 µM and > 58.4 µM and 16.6 µM | 28.2 µM and > 72.6 µM and 33.5 µM | 18 | 34.8 µM and > 100 µM | – | 28.9 µM and 30.4 µM and > 55.9 µM | – | – | 15.8 µM and 5.61 µM and 16.4 µM | 30.5 µM and 65.8 µM and 36.1 µM |
| O=C1CCCN1c1ccccc1I(=O)=O | > 100 | > 100 µM | > 100 | > 100 µM | > 100 | > 100 µM | > 100 | > 100 | > 100 | > 100 µM | > 100 µM | > 100 µM | – | – | – | – | > 100000 | > 100 | > 100 µM | > 100 µM |
| CC1CC(O)C(=O)C(O[C@@H]2C[C@@H]3CC[C@@H]4[C@H](CC[C@]5(C)C(C6=CC(=O)OC6)CC[C@]45O)[C@@]3(C=O)C[C@H]2O)O1 (some centres not stated) | – | 0.22 µM | – | 0.126 µM | – | 0.149 µM | – | 0.491 | – | – | – | 0.283 µM | – | 0.0492 µM | – | 0.0511 µM | – | 0.0346 | – | 0.163 µM |
| N#CCCN1C/C(=C/c2ccc(Br)cc2)C(=O)/C(=C/c2ccc(Br)cc2)C1 | 1.47 | 2.92 µM | 1.56 | 3.04 µM | – | – | 1.57 | 2.97 | 2.02 | 5.35 µM | 1.92 µM | 3.97 µM | 1.66 | 3.57 µM | 0.181 | 0.345 µM | – | – | 1.14 µM | > 100 µM |
| Cn1cc(-c2csc(-c3cn(CCCCN4CCCCC4)c4ccccc34)n2)c2cccnc21 | 1.51 | 2.95 µM | 1.75 | 3.37 µM | 1.64 | 3.06 µM | – | – | – | – | 1.6 µM | 3.06 µM | 1.6 | 3.19 µM | – | – | 1710 | 3.13 | – | – |
| O=[N+]([O-])c1cccc(C2=NOC(C3CCCCC3)C2)c1 (configuration not stated) | – | > 100 µM | – | – | – | > 100 µM | – | > 100 | – | > 100 µM | – | > 100 µM | – | > 100 µM | – | > 100 µM | – | > 100 | – | > 100 µM |
| Cc1cccc(C2=C/C(=C(\SS/C(C(=O)c3ccc(OCC(=O)O)c(Cl)c3Cl)=C3\C=C(c4cccc(C)c4)SS3)C(=O)c3ccc(OCC(=O)O)c(Cl)c3Cl)SS2)c1 | – | 32.2 µM | – | – | – | > 85.6 µM | – | 38.3 | – | 44.8 µM | – | > 86.2 µM | – | > 100 µM | – | > 53.8 µM | – | 50.8 | – | > 73.6 µM |
| Nc1nc(-c2ccc(Cl)c([N+](=O)[O-])c2)cs1 | – | > 100 µM | – | – | – | > 100 µM | – | > 100 | – | > 100 µM | – | > 100 µM | – | > 100 µM | – | > 100 µM | – | > 100 | – | > 100 µM |
| CN(C(=O)c1ccc([N+](=O)[O-])cc1)c1ccccc1 | – | > 100 µM | – | – | – | > 100 µM | – | > 100 | – | > 100 µM | – | > 100 µM | – | > 100 µM | – | > 100 µM | – | > 100 | – | > 100 µM |
| CCC/C=C/C=C/C1CC(O)C(O)C(=O)C1CO (configuration not stated) | – | > 100 µM | – | > 100 µM | – | > 100 µM | – | > 100 | – | > 100 µM | – | > 100 µM | – | – | – | > 100 µM | – | > 100 | – | > 100 µM |
| CC(C)(C)c1ccc2c(c1)S(=O)(=O)Nc1ccc(Cl)cc1NS(=O)(=O)c1cc(C(C)(C)C)ccc1OCCOCCOCCO2 | – | > 100 µM | – | – | – | > 100 µM | – | > 100 | – | > 100 µM | – | > 100 µM | – | > 100 µM | – | > 100 µM | – | > 100 | – | > 100 µM |
| COc1cc2c(/C=N\N=C(N)N)c[nH]c2cc1C | > 100 | > 100 µM | 15.3 | 28.5 µM | 15.4 | 43.4 µM | 17.3 | 35.1 | 33.2 | > 100 µM | 21.4 µM | 64 µM | – | – | 14.6 | 27.7 µM | 13500 | 27.3 | 40.2 µM | > 100 µM |
| COc1cc2c(cc1O)CCN[C@]21CS[C@@H]2c3c(OC(C)=O)c(C)c4c(c3[C@H](COC1=O)N1[C@@H]2[C@H]2c3c(cc(C)c(OC)c3O)C[C@@H]([C@@H]1O)N2C)OCO4 | – | – | – | 0.00612 µM | – | 1.01 µM | – | – | 0.00257 | 1.96 µM | – | 1.19 µM | – | 0.252 µM | – | 2.94 µM | – | 0.0057 | – | 4.83 µM |
| CO[C@H]1Nc2c(ccc(C)c2O)C(=O)N2C=C(/C=C/C(N)=O)C[C@@H]12 | – | 0.0451 µM | – | < 0.0479 µM | – | 1.75 µM | – | 0.1 | – | 7.33 µM | – | 5.45 µM | – | 0.0386 µM | – | – | – | 0.192 | – | 2.01 µM |
| CCOCN1COCN(C)C1=O | – | > 100 µM | – | – | – | > 100 µM | – | > 100 | – | > 100 µM | – | > 100 µM | – | > 100 µM | – | > 100 µM | – | > 100 | – | > 100 µM |
| COC(=O)/C(=N/O)C(C(=O)C=C(C)C)C(=O)C(=O)Nc1nc2ccc([N+](=O)[O-])cc2s1 (configuration not stated) | – | 92.8 µM | – | – | – | > 100 µM | – | > 100 | – | > 100 µM | – | > 100 µM | – | > 100 µM | – | > 100 µM | – | 76.1 | – | > 100 µM |
| O=C(CC(=O)C1CCOC1=O)C(=O)Nc1cccc(Cl)c1 (configuration not stated) | – | > 100 µM | – | – | – | > 100 µM | – | > 100 | – | > 100 µM | – | > 100 µM | – | > 100 µM | – | > 100 µM | – | > 100 | – | > 100 µM |
| N#CC(=Nc1ccccc1N(C(=O)c1ccccc1)C(=O)c1ccccc1)c1ccccc1 | – | > 100 µM | – | – | – | > 100 µM | – | > 64.6 | – | > 100 µM | – | > 100 µM | – | > 100 µM | – | > 44.8 µM | – | > 100 | – | > 100 µM |
| COc1ccc(C(=O)c2cc(OC)c(OC)c(OC)c2)cc1OC | – | 39.4 µM | – | > 100 µM | – | 4.27 µM | – | – | – | > 100 µM | – | > 100 µM | – | > 100 µM | – | > 100 µM | – | 9.47 | – | > 100 µM |
| C=CC(=O)N1CN(C(=O)C=C)CN(C(=O)C=C)C1 | 2.19 | 8.53 µM | 6.68 | 20.7 µM | – | – | 1.7 | 3.59 | 3.34 | 11.3 µM | 10.6 µM | 24.7 µM | 12.3 | 48.1 µM | 1.77 | 3.33 µM | 2570 | 7.99 | 2.93 µM | > 100 µM |
| COc1cccc(/C=N/[N-]C(=O)c2ccncc2)c1[O-].COc1cccc(/C=N/[N-]C(=O)c2ccncc2)c1[O-].[O]=[U](=[O])([OH2+])[OH2+] | 3.45 | 20 µM | – | – | 5.86 | > 54.7 µM | 4.09 | > 100 | 9.59 | > 90.4 µM | 6.79 µM | > 100 µM | 3.71 | 24.9 µM | 4.8 | > 100 µM | 3080 | > 100 | 5.11 µM | > 100 µM |
| CC(C)(C)[Si](C)(C)OC1[C@@H](CNC(=O)NC(=O)CCl)O[C@@H](n2cnc3c(N)ncnc32)[C@H]1O[Si](C)(C)C(C)(C)C (some centres not stated) | 0.436 | 1.13 µM | 0.869 | 1.73 µM | – | – | 1.45 | 3.55 | 0.154 | 0.441 µM | 0.818 µM | 1.62 µM | 0.842 | 1.69 µM | 0.795 | 1.51 µM | 1020 | 1.94 | 0.812 µM | 2.85 µM |
| COc1ccc(-c2nn(-c3cccc(Cl)c3)cc2-c2cc(-c3ccccc3)[nH]c(=O)c2C#N)cc1 | – | – | 1.46 | 17.8 µM | – | – | 7.4 | > 50 | 1.89 | 7.71 µM | 32.3 µM | > 50 µM | 1.17 | 2.87 µM | 1.71 | 32.8 µM | 2840 | 16.8 | 1.67 µM | > 50 µM |
